Measurements taken from the supplement of paper PMC5908809.

How the values were obtained:
[1] = tested on: normal NK cells expanded with K562-aAPC; test: percent inhibition of viability; higher = more inhibition; settings: 72 h, IL-2 2.5 ng/mL
Method: (§1)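 Drug sensitivity and resistance testing on K562-aAPC-expanded normal NK cells: 5 concentrations (10-fold steps over a 10,000-fold range), 72 h at 37 °C, viability by CellTiter-Glo normalised to DMSO and benzethonium chloride controls; DSS from the fitted curve.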

[2] = tested on: normal primary NK cells, pool 1 (3 donors) (IL-2 2.5 ng/mL); test: drug sensitivity score (DSS) (DSS units); higher = more sensitive; extreme values may be limits of the assay; settings: 72 h
NK-92 (IL-2 2.5 ng/mL) [3] = test: as above; settings: 72 h
IMC-1 (IL-2 20 ng/mL) [4] = test: as above; settings: 72 h
DERL-7 (IL-2 2.5 ng/mL) [5] = test: as above; settings: 72 h
SNK-6 (IL-2 2.5 ng/mL) [6] = test: as above; settings: 72 h
[7] = tested on: normal primary NK cells, pool 3 (3 donors) (IL-2 2.5 ng/mL); test: as above; settings: 72 h
KAI3 (IL-2 2.5 ng/mL) [8] = test: as above; settings: 72 h
NK-YS (IL-2 2.5 ng/mL) [9] = test: as above; settings: 72 h
[10] = tested on: normal primary NK cells, pool 1 (3 donors), resting (IL-2 0 ng/mL); test: as above; settings: 72 h
NKL (IL-2 2.5 ng/mL) [11] = test: as above; settings: 72 h
YT (IL-2 2.5 ng/mL) [12] = test: as above; settings: 72 h
KHYG-1 (IL-2 2.5 ng/mL) [13] = test: as above; settings: 72 h
[14] = tested on: normal primary NK cells, pool 2 (3 donors) (IL-2 2.5 ng/mL); test: as above; settings: 72 h
[15] = tested on: normal primary NK cells, pool 1 (3 donors) (IL-2 2.5 ng/mL); test: percent inhibition of viability; higher = more inhibition; settings: 72 h
NK-92 (IL-2 2.5 ng/mL) [16] = test: as above; settings: 72 h
IMC-1 (IL-2 20 ng/mL) [17] = test: as above; settings: 72 h
DERL-7 (IL-2 2.5 ng/mL) [18] = test: as above; settings: 72 h
SNK-6 (IL-2 2.5 ng/mL) [19] = test: as above; settings: 72 h
[20] = tested on: normal primary NK cells, pool 3 (3 donors) (IL-2 2.5 ng/mL); test: as above; settings: 72 h
KAI3 (IL-2 2.5 ng/mL) [21] = test: as above; settings: 72 h
NK-YS (IL-2 2.5 ng/mL) [22] = test: as above; settings: 72 h
[23] = tested on: normal primary NK cells, pool 1 (3 donors), resting (IL-2 0 ng/mL); test: as above; settings: 72 h
NKL (IL-2 2.5 ng/mL) [24] = test: as above; settings: 72 h
YT (IL-2 2.5 ng/mL) [25] = test: as above; settings: 72 h
KHYG-1 (IL-2 2.5 ng/mL) [26] = test: as above; settings: 72 h
[27] = tested on: normal primary NK cells, pool 2 (3 donors) (IL-2 2.5 ng/mL); test: as above; settings: 72 h
[28] = tested on: normal NK cells expanded with K562-aAPC; test: drug sensitivity score (DSS) (DSS units); higher = more sensitive; extreme values may be limits of the assay; settings: 72 h; IL-2 2.5 ng/mL
Method: as §1

COc1cc(C(=O)NC2CCN(C)CC2)c(F)cc1Nc1ncc2c(n1)N(C1CCCC1)CC(F)(F)C(=O)N2C [TAK-960] (max concentration tested 2500 nM)
percent inhibition of viability [%]
Settings	0.25 nM	2.5 nM	25 nM	250 nM	2500 nM
DERL-7 (IL-2 2.5 ng/mL) [18]	-1.39	-5.61	-0.81	-6.15	-11.4
IMC-1 (IL-2 20 ng/mL) [17]	-4.4	4.01	9.33	8.23	11.8
KAI3 (IL-2 2.5 ng/mL) [21]	-8.99	-1.96	-2.51	-1.54	2.64
KHYG-1 (IL-2 2.5 ng/mL) [26]	0.04	3.31	3.4	2.48	6.51
NK-92 (IL-2 2.5 ng/mL) [16]	-8.09	-7.71	9.2	-1.64	15.2
NK-YS (IL-2 2.5 ng/mL) [22]	-3.49	1.57	0.97	0.32	6.84
NKL (IL-2 2.5 ng/mL) [24]	-17.8	-2.17	0.04	4.31	2.51
SNK-6 (IL-2 2.5 ng/mL) [19]	22.6	22	36.4	38	22.1
YT (IL-2 2.5 ng/mL) [25]	1.09	0.71	8.79	0.43	6.32
[1]	-3.09	0.01	0.41	9.42	8.37
[15]	7.7	-2.83	-1.46	-9	3.2
[20]	-10.9	-5.87	7.99	-6.67	-0.88
[23]	11.1	-6.28	-3.33	-13.8	-6.51
[27]	-10.9	-4.09	10.7	0.25	13.6

Settings	drug sensitivity score
DERL-7 (IL-2 2.5 ng/mL) [5]	0.89
IMC-1 (IL-2 20 ng/mL) [4]	0.63
KAI3 (IL-2 2.5 ng/mL) [8]	0
KHYG-1 (IL-2 2.5 ng/mL) [13]	0
NK-92 (IL-2 2.5 ng/mL) [3]	0.18
NK-YS (IL-2 2.5 ng/mL) [9]	0
NKL (IL-2 2.5 ng/mL) [11]	0
SNK-6 (IL-2 2.5 ng/mL) [6]	13
YT (IL-2 2.5 ng/mL) [12]	0
[2]	0
[7]	0
[10]	0
[14]	0.16
[28]	0
